Source: US20150050682A1, “DIRECT ASSAY OF THIOREDOXIN REDUCTASE ACTIVITY” (University of Vermont and State Agricultural College, priority 2013, published 2015)

What was measured:
[1] = tested on: thioredoxin reductase (TR); experiment: Selenocystine TR assay (SC-TR assay); assay type: biochemical, mouse; settings: for Efficiency of reduction by TR: L- versus racemic selenocystine as substrate; for Inhibition of TR activity (NADPH turnover, A340): C10 whole cell lysates, FIG. 2B
Protocol: Selenocystine TR assay. Cells were plated into 60 mm tissue culture dishes and the following day were washed with ice-cold 1× phosphate buffered saline (PBS) and lysed in the culture dish by adding either TE Buffer (50 mM Tris/HCl pH 7.5, 1 mM EDTA) or NP-40 lysis buffer (150 mM NaCl, 50 mM Tris pH 8.0, 1% NP-40, 1 μg/mL leupeptin, 1 μg/mL aprotinin, 1 mM NaF, 1 mM NaVO3, 1 mM PMSF) as indicated in the text. Cell lysates were scraped from culture dishes on ice and transferred to 1.5 mL microcentrifuge tubes. TE buffer lysates were sonicated at 4° C. for 30 sec with 1-2 sec pulses using a sonic dismembrator. TE and NP-40 lysates were centrifuged for 10 min at 14,000 rpm at 4° C. and protein concentrations of the supernatants were determined by reading the absorption at 595 nm of Bradford reagent. A total reaction volume of 100 μl was assembled in a clear 96-well round bottom microplate containing the following: (i) master mix containing 1 mM NADPH and 2 mM selenocystine (SC) in ddH2O (addition of 40 μl of master mix to 100 μl reaction volume yields final concentrations of 400 μM and 800 μM respectively), (ii) 25 μg or the largest practical amount of protein, (iii) TE or NP-40 lysis buffer. Controls for each sample included protein only control, protein and NADPH control, and protein and SC control. Control master mixes contained: (i) 2 mM NADPH in ddH2O (addition of 20 μl to 100 μl reaction volume yields final concentration of 400 μM), (ii) 2 mM SC prepared as described above (addition of 40 μl to 100 μl reaction volume yields final concentration of 800 μM).
Each master mix was separately placed into a clean, sterile pipet basin and pipetted quickly into the wells of a 96-well microplate with a multichannel pipetter making sure to avoid bubbles. This approach was used in order that each sample was exposed to the master mix at the same time to ensure homogeneity of results. The plate was read in 30 sec intervals over a 20 min time period at 340 nm on a Synergy HT Microplate Reader™ (BioTek). Because the assay monitors the consumption of NADPH at 340 nm, an activity can be calculated by using Beer's Law and an extinction coefficient of 6,220 M^−1 cm^−1 for NADPH. The activity can be reported as mol NADPH consumed per min. Bradford assays for total protein concentration determination can be performed directly in each well of the 96-well plate. If this is done, then the activity can be reported as mol NADPH consumed per min per mg of total protein. For the data presented in FIGS. 2 and 5, 1 unit of TR activity is defined as the amount of TR that will consume 1 nmol of NADPH per min.

[2] = tested on: thioredoxin reductase (TR); experiment: Discontinuous insulin end-point TR assay; assay type: biochemical, mouse; settings: for Inhibition of TR activity: C10 whole cell lysates, end-point TR assay, FIG. 2A
Protocol: Discontinuous insulin end-point assay. Cell lysates were prepared in TE buffer as described above and the sonicated lysates were centrifuged for 10 min at 14,000 rpm at 4° C. Supernatants were transferred to fresh 1.5 mL microcentrifuge tubes and protein concentrations were determined by a Bradford assay. A total reaction volume of […] was assembled by addition of 20 μL master mix to 20 μL of 25 μM E. coli Trx solution. The master mix contained 50 mM Tris/Cl pH 7.5, 1 mM EDTA, 900 μM NADPH (257 μM final), and 4.5 mg/mL insulin (1.3 mg/mL final). After addition of all of the components to a cuvette, the reactions were incubated at room temperature for 60 min and terminated by the addition of 930 μL of 6 M guanidine•HCL containing 1 mM 5,5′-dithio-bis(2-nitrobenzoic acid) (DTNB) solution prepared in ethanol; activity was detected by reading absorbance at 412 nm in a spectrophotometer. TR activity was determined by calculating the difference between identical samples +/− Trx. Here the activity is expressed as arbitrary units as determined by the raw A412 reading. Alternatively, the number of units can be calculated by using Beer's Law and an extinction coefficient of 13,600 M^−1 cm^−1 for the TNB anion. One unit of TR activity is the amount of enzyme catalyzing the reduction of 1 μM of DTNB per min (formation of 2 μmol TNB anion).

[3] = target: T1, glutathione reductase (Homo sapiens, UniProt P00390); experiment: Reduction of selenocystine by glutathione reductase in vitro; assay type: biochemical; settings: same experimental conditions under which TR reduces selenocystine
T1 sequence (P00390 44-522): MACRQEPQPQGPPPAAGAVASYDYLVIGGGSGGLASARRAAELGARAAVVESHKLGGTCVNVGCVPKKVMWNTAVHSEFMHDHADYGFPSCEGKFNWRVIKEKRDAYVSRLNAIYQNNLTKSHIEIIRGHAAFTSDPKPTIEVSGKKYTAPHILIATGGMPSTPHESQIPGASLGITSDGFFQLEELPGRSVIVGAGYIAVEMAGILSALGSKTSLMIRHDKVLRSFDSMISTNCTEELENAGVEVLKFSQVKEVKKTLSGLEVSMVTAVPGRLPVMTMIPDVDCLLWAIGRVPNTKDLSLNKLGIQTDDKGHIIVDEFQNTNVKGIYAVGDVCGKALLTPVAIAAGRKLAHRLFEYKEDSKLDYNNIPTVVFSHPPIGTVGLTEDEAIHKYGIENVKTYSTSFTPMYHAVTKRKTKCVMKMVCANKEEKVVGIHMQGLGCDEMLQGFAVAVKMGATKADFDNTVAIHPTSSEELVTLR

[4] = tested on: TR1; experiment: Immunoblot of TR1 expression after siRNA knockdown in C10 cells; assay type: cell-based, mouse; settings: Western blot, FIG. 3E
Text: TR over-expression and gene silencing. Full length TR1 was amplified from pCMV6-XL4 vector by PCR using specific forward (5′-[…]-3′) and reverse (5′-[…]-3′) primers and subsequently cloned into pcDNA 3.1 mammalian expression vector. Insertion of WT-TR1 full-length cDNA, including the 3′ SECIS element, into pcDNA 3.1 was confirmed by sequencing using the appropriate forward and reverse primer sets (T7 Forward: BGH Reverse). WT-TR1 or empty pcDNA 3.1 vector were transfected into C10 cells according to manufacturer's protocol. Specific siRNA to TR1 (si-TR1, 5′-[…]-3′) and a control (“scramble”) RNA (5′-[…]-3′) were introduced into C10 cells following the manufacturers guidelines (Dharmacon).
Immunoblotting. Equal protein amounts from cell lysates were separated on 10% gels by SDS-PAGE. Proteins were transferred to PVDF membrane for immunoblotting, and membranes then were blocked in 5% milk (Tris buffered saline with 0.1% Tween, TBST) for 1 hr at room temperature. Anti-TR1 (1:1000) anti-Trxl (1:2000) and anti-actin (1:5000) antibodies were diluted in 5% milk/TBST and incubated with membranes for 1 hr at room temperature. […] Membranes were washed 5× with TBST and HRP secondary antibodies were detected using Enhanced Chemiluminescent™ solution and collected on X-ray film.

N[C@@H](C[Se][Se]C[C@H](N)C(=O)O)C(=O)O (racemic) [racemic selenocystine, selenocystine]
Efficiency of reduction by TR [1]: equal efficiencies

CC(=O)OC[C@H]1O[C@@H]([S-])[C@H](OC(C)=O)[C@@H](OC(C)=O)[C@@H]1OC(C)=O.CCP(CC)CC.[Au+] [auranofin]
Sensitivity of TR activity to inhibitor, TE buffer versus NP-40 buffer ([1]; lysates from treated C10 cells prepared in TE buffer or NP-40 lysis buffer, FIG. 4): equivalent

C=CC=O [acrolein]
Inhibition of TR activity in cells over expressing TR1 and TR2 ([2]; C10 cells transfected with TR1 and TR2, TE buffer lysates, end-point assay, FIG. 2C): inhibited to an equal extent
Inhibition of TR activity [2]: inhibition of total TR activity
Inhibition of TR activity ([2]; listed as Acrolein): completely inhibits
Inhibition of TR activity in cells over expressing TR1 and TR2 ([1]; C10 cells transfected with TR1 and TR2, TE buffer lysates, SC-TR assay, FIG. 2D): inhibited to an equal extent
Inhibition of TR activity (NADPH turnover, A340) ([1]; SC-TR assay): complete inhibition
Inhibition of TR activity (NADPH turnover, A340) ([1]; SC-TR assay, listed as Acrolein): completely inhibits

N[C@@H](C[Se][Se]C[C@H](N)C(=O)O)C(=O)O [L-selenocystine]
Efficiency of reduction by TR [1]: equal efficiencies

N[C@@H](C[Se][Se]C[C@H](N)C(=O)O)C(=O)O [selenocystine]
Reduction of substrate by glutathione reductase [3]: does not reduce

siRNA: Specific siRNA to TR1 (si-TR1, 5′-CCAUAGAGGGCGAAUUUAAUU-3′) (listed as RNA, chemistry not given here)
TR1 protein expression after knockdown [4]: reduced the expression of TR1 for up to 48 hrs
TR activity after knockdown of TR1 ([1]; C10 cells transfected with siRNA, SC-TR assay, FIG. 3A): reduced TR activity below control levels
